Source: patent US6083973A, “Methods for inhibiting mucin secretion using RAR α selective antagonists” (Syntex (U.S.A.) Inc., priority 1999, dated 2000)

Tests used:
[1] = target: T1, RARγ (Homo sapiens, UniProt P13631); experiment: Transactivation of RARγ relative to ATRA; format: biochemical; settings: both compounds at 10000 nM, read-out: Transactivation EC50 % MAX, RARγ
T1 sequence (P13631 1-454): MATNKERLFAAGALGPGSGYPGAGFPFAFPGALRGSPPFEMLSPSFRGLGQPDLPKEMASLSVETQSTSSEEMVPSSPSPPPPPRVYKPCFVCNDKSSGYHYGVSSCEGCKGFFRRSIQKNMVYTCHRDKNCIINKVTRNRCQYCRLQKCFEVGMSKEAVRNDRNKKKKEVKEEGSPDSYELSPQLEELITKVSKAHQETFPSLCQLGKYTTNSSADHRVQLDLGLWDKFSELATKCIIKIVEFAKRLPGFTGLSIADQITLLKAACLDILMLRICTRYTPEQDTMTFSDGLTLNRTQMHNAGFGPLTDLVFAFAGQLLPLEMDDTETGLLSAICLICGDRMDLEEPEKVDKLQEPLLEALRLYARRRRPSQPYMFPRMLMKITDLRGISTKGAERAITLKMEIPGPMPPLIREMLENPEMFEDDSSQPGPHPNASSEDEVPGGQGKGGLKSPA
Experimental: (§1) As used herein, the term "EC50 " of a retinoid for a retinoic acid receptor means the transactivation by the retinoid of the particular retinoic acid receptor under consideration relative to the transactivation of that same receptor by ATRA under identical conditions with both retinoids at the same concentration (1000 nM or 10000 nM depending on the highest concentration tested). Values are expressed as a percentage.
(§2) As used herein, the term "transactivation" refers to the ability of a retinoid to activate the transcription of a gene where the gene transcription is initiated by the binding of a ligand to the particular retinoic acid receptor being tested, i.e., RARα, RARβ, or RARγ. Determining the ability of a compound to transactivate a retinoic acid receptor may be performed by methods known to those of skill in the art. Examples of such methods are found in Bernard, et al. Biochem. Biophys. Res. Commun., 186:977-983 (1992) and C. Apfel, et al. Proc. Nat. Sci. Acad. (USA), 89:7129-7133 (1992).
(§3) EC50 's were determined relative to ATRA, with both compounds at 10000 nM. Values are expressed as a percentage of transactivation relative to ATRA.

[2] = target: T2, RARβ (Homo sapiens, UniProt P10826); experiment: Transactivation of RARβ relative to ATRA; format: biochemical; settings: both compounds at 10000 nM, read-out: Transactivation EC50 % MAX, RARβ
T2 sequence (P10826 1-455): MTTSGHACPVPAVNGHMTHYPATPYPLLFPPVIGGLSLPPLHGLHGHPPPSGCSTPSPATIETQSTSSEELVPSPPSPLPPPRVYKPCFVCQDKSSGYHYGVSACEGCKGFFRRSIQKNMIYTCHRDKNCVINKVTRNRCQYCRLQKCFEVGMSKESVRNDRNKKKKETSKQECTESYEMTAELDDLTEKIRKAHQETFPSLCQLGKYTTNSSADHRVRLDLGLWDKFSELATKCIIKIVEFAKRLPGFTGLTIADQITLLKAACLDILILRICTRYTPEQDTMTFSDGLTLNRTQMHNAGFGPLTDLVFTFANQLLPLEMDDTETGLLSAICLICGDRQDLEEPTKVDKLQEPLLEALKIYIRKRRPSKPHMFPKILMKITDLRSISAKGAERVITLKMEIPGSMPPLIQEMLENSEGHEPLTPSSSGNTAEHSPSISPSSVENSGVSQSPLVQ
Experimental: as §1, §2, §3

[3] = target: T1, RARγ; experiment: RAR binding, competition with labelled ATRA, γ
Experimental: (§4) The term "IC50 " of a retinoid for a retinoic acid receptor refers to the concentration of the retinoid at which binding by ATRA to that particular receptor is inhibited by 50%. Binding is measured by competition of the retinoid with labelled ATRA.
(§5) The RARα antagonist selectivity of a compound can be determined by routine ligand binding assays known to one of skill in the art such as described in C. Apfel, et al. Proc. Nat. Sci. Acad. (USA), 89:7129-7133 (1992); M. Teng, et al, J. Med. Chem., 40:2445-2451 (1997); and PCT Publication WO 96/30009.

[4] = target: T3, RARα (Homo sapiens, UniProt P10276); experiment: RAR binding, competition with labelled ATRA, α
T3 sequence (P10276 1-462): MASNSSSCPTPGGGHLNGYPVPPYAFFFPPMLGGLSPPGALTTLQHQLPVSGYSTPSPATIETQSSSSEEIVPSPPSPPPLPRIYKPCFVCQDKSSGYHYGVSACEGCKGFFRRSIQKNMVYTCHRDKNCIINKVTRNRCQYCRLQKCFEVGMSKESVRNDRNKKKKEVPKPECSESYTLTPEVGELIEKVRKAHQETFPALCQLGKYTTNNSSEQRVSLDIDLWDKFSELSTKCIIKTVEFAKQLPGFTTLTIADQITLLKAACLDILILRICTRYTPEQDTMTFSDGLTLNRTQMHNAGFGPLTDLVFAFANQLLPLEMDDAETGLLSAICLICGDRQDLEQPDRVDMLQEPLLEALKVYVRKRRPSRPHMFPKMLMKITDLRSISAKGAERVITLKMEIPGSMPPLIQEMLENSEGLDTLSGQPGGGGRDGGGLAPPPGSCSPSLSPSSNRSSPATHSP
Experimental: as §4, §5

[5] = target: T3, RARα; experiment: Transactivation of RARα relative to ATRA; format: biochemical; settings: both compounds at 10000 nM, read-out: Transactivation EC50 % MAX, RARα
Experimental: as §1, §2, §3

[6] = target: T2, RARβ; experiment: RAR binding, competition with labelled ATRA, β
Experimental: as §4, §5

[7] = system: MUC5AC; experiment: MUC5AC gene transactivation in NHBE cells, RT-PCR; format: cell-based, human; settings: even at the highest dose, 1×10^-6 M, Example 2
Experimental: (§6) Transactivation of mucin genes in normal primary human bronchial epithelial cells (NHBE) was performed as described by Gray et al. Am. J. Respir. Biol., 14:104-112 (1996). Primary human airway epithelial cells were cultured on porous Transwell membranes (Corning/Costar) in defined media in the absence of all-trans retinoic acid (ATRA) for 7 days. After seven days, fresh media±ATRA or selective retinoid, was added to the basal culture compartment to create an air-liquid interface (ALI). ATRA and/or selective retinoids were used at a concentration or 1×10^-7 M. The selective retinoids used were: Compound X (RARα selective agonist), RXR agonist (SRI 11217) and anti-AP1 retinoid (SRI 11302). After seven additional days of culture the media was harvested for analysis of secreted mucin gene product using specific ELISA as previously described (Gray et al). The cell layer was lysed using a guanidinium-based buffer (TRIZOL/Sigma) for RNA extraction and analysis. Amplification of MUC2 and MUC5AC RNA was performed by standard RT-PCR using appropriate selective primer and mimics pairs (Guzman et al., Am. J. Physiol. 271 (Lung Cell Mol Physiol.15): L1023-L1028 (1996) and PCR products were detected in ethedium bromide stained agarose gels.
(§7) Transactivation of mucin genes in NHBE was performed as described above with the exception that media was supplemented with RAR alpha (RARα), beta (RARβ), or gamma (RARγ)-selective retinoids on days 7 through day 14. The RAR alpha (RARα), beta (RARβ), or gamma (RARγ)-selective retinoids were compounds X, Y and CD-437 respectively.
(§8) Transactivation of mucin genes in NHBE was performed as described above. On days 7 through day 14 cells were cultured with 1×10^-6 M RARα antagonist, Compound Z, alone or in combination with 1×10^-7 M ATRA or RARα selective agonist, Compound X. The effects on mucin gene transactivation and expression were determined by RT-PCR and ELISA as described above. RARα selective antagonist, Compound Z, had no effect on MUC2 or MUC5AC gene expression.

[8] = system: MUC2; experiment: MUC2 gene transactivation in NHBE cells, RT-PCR; format: cell-based, human; settings: even at the highest dose, 1×10^-6 M, Example 2
Experimental: as §6, §7, §8

| SMILES | Emax at 10 µM [1] [%] | % transactivation relative to ATRA at 10 µM [2] [%] | IC50 [3] [µM] | IC50 [4] [µM] | Emax at 10 µM [5] [%] | IC50 [6] [µM] | Induction of MUC5AC [7] | Induction of MUC2 [8] |
| --- | --- | --- | --- | --- | --- | --- | --- | --- |
| CCCCCCCCc1cc2c(cc1/C(C)=C/C=C/C(C)=C/C(=O)O)C(C)(C)CCCS2(=O)=O | 33 | 35 | 1 | 0.047 | 11 | 4.9 | – | – |
| CCCCCCCCc1cc2c(cc1/C(C)=C/c1ccc(C(=O)O)cc1)C(C)(C)CCS2(=O)=O | 32 | 15 | 2.3 | 0.07 | 16 | 1.9 | – | – |
| CCCCCCCOc1cc2c(cc1/C(C)=C/C=C/C(C)=C/C(=O)O)C(C)(C)CCS2 | 36 | 17 | < 10 | 0.2 | 27 | < 10 | – | – |
| CCCCCCCOc1cc2c(cc1/C(C)=C/C=C/C(C)=C/C(=O)O)C(C)(C)CCCS2(=O)=O | 30 | 20 | 2.2 | 0.18 | 12 | 6.4 | – | – |
| CCCCCCCOc1cc2c(cc1/C(C)=C/c1ccc(C(=O)O)cc1)C(C)(C)CCCS2(=O)=O | 18 | 7 | 2.5 | 0.19 | 14 | 3 | – | – |
| CCCCCCCOc1cc2c(cc1-c1ccc3cc(C(=O)O)ccc3c1)C(C)(C)CCS2(=O)=O | 14 | 17 | 1.4 | 0.36 | 8 | 2.8 | – | – |
| CCCCCCCOc1cc2c(cc1/C(C)=C/c1ccc(C(=O)O)cc1)C(C)CCCS2(=O)=O (stereo not drawn) | – | 7 | 3 | 0.53 | 5 | 5.1 | – | – |
| CCCCCCCOc1cc2c(cc1C#Cc1ccc(C(=O)O)cc1)C(C)(C)CCS2(=O)=O | 20 | 6 | 2.9 | 0.24 | 18 | 3.5 | – | – |
| CCCCCCCOc1cc2c(cc1/C(C)=C/C=C/C(C)=C/C(=O)O)C(C)(C)CC[S+]2[O-] (stereo not drawn) | 11 | 10 | 3.7 | 0.44 | 13 | > 10 | – | – |
| CCCCCCCCc1cc2c(cc1/C(C)=C/c1ccc(C(=O)O)cc1)C(C)(C)CCCS2(=O)=O | 36 | 13 | 1.8 | 0.2 | 18 | 3.3 | – | – |
| CCCCCCCOc1cc2c(cc1\C(C)=C/C=C/C(C)=C/C(=O)O)C(C)(C)CCS2(=O)=O | 20 | 31 | > 10 | 0.45 | 24 | > 10 | – | – |
| CCCCCCOc1cc2c(cc1/C(C)=C/C=C/C(C)=C/C(=O)O)C(C)(C)CCCS2(=O)=O | 46 | 32 | 1.3 | 0.25 | 20 | 2.5 | – | – |
| CCCCCCCCOc1cc2c(cc1/C(C)=C/c1ccc(C(=O)O)cc1)C(C)(C)CCCS2(=O)=O | 25 | 21 | 2.6 | 0.39 | 8 | 6.9 | – | – |
| CCCCCCOc1cc2c(cc1/C(C)=C/c1ccc(C(=O)O)cc1)C(C)(C)CCCS2(=O)=O | 54 | 37 | 2.6 | 0.58 | 14 | 3.8 | – | – |
| CCCCCCCOc1cc2c(cc1/C(C)=C/c1ccc(C(=O)O)cc1)C(C)(C)CS2(=O)=O | 24 | 22 | 3.4 | 0.16 | 11 | 6.9 | – | – |
| O=C(O)c1ccc2cc(-c3ccc(O)c(C45CC6CC(CC(C6)C4)C5)c3)ccc2c1 [CD-437, 6-[3-(1-adamantyl)-4-hydroxyphenyl]-2-naphthalenecarboxylic acid] | – | – | – | – | – | – | minimal | minimal |
| CCCCCCCOc1cc2c(cc1/C(C)=C/c1ccc(C(=O)O)cc1)C(C)(C)CCS2(=O)=O [drawing 3] | 9 | 3 | 4.2 | 0.077 | 16 | – | – | – |
| CCCCCCCOc1cc2c(cc1/C(C)=C/C=C/C(C)=C/C(=O)O)C(C)(C)CCS2(=O)=O [drawing 4] | 16 | 14 | 2.4 | 0.027 | 9 | 5.1 | – | – |
